The subject of this assay is MV-4-11 cells. Nature of the assay: Gene expression microarray analysis (Affymetrix PrimeView) and GSEA. Format: cell-based, human. The conditions noted are these: ProbeSet 11726661_s_at; LIST B. Further details: RFU PODN (11730768_x_at) / Fold change /veh PODN (11730768_x_at) / RFU LINC00158 (11744669_a_at) / Fold change /veh LINC00158 (11744669_a_at) / RFU DUSP10 (11751237_a_at) / Fold change /veh DUSP10 (11751237_a_at) / RFU ID3 (11757404_x_at) / Fold change /veh ID3 (11757404_x_at) / RFU PLEKHG5 (11737974_s_at) / Fold change /veh PLEKHG5 (11737974_s_at) / RFU LRRC4B (11730491_at) / Fold change /veh LRRC4B (11730491_at) / RFU GIMAP4 (11747438_a_at) / Fold change /veh GIMAP4 (11747438_a_at) / RFU KRT8 (11758183_x_at) / Fold change /veh KRT8 (11758183_x_at) / RFU CNN1 (11734310_a_at) / Fold change /veh CNN1 (11734310_a_at) / RFU VPS37D (11726825_at) / Fold change /veh VPS37D (11726825_at) / RFU C10orf10 (11716522_x_at) / Fold change /veh C10orf10 (11716522_x_at) / RFU KIR2DL2 /// KIR2DL4 /// KIR2DL5A /// KIR2DL5B /// KIR2DS1 /// KIR2DS2 /// KIR2DS3 /// KIR2DS4 /// KIR3DL3 /// KIR3DL3 /// KIR3DS1 (11738374_at) / Fold change /veh KIR2DL2 /// KIR2DL4 /// KIR2DL5A /// KIR2DL5B /// KIR2DS1 /// KIR2DS2 /// KIR2DS3 /// KIR2DS4 /// KIR3DL3 /// KIR3DL3 /// KIR3DS1 (11738374_at) / RFU C1QL1 (11718748_at) / Fold change /veh C1QL1 (11718748_at) / RFU TMPRSS4 (11747572_a_at) / Fold change /veh TMPRSS4 (11747572_a_at) / RFU HAMP (11756126_x_at) / Fold change /veh HAMP (11756126_x_at) / RFU RNFT2 (11725882_a_at) / Fold change /veh RNFT2 (11725882_a_at) / RFU NR4A2 (11747474_a_at) / Fold change /veh NR4A2 (11747474_a_at) / RFU ABCC12 (11746883_a_at) / Fold change /veh ABCC12 (11746883_a_at) / RFU TMEM136 (11760407_x_at) / Fold change /veh TMEM136 (11760407_x_at) / RFU CLDN22 /// WWC2 (11732394_at) / Fold change /veh CLDN22 /// WWC2 (11732394_at) / RFU HLA-DPB1 (11760878_x_at) / Fold change /veh HLA-DPB1 (11760878_x_at) / RFU SPINT1 (11716480_a_at) / Fold change /veh SPINT1 (11716480_a_at) / RFU GAP43 (11754022_s_at) / Fold change /veh GAP43 (11754022_s_at) / RFU A4GNT (11735810_at) / Fold change /veh A4GNT (11735810_at) / RFU PRB3 (11715151_x_at) / Fold change /veh PRB3 (11715151_x_at) / RFU TUBB4B (11761932_at) / Fold change /veh TUBB4B (11761932_at) / RFU CAPN14 (11732068_a_at) / Fold change /veh CAPN14 (11732068_a_at) / RFU TMCC2 (11721928_a_at) / Fold change /veh TMCC2 (11721928_a_at) / RFU IRGQ (11745062_a_at) / Fold change /veh IRGQ (11745062_a_at) / RFU FAM174B (11720279_a_at) / Fold change /veh FAM174B (11720279_a_at) / RFU TMPRSS4 (11748680_a_at) / Fold change /veh TMPRSS4 (11748680_a_at) / RFU FAM212B (11763350_a_at) / Fold change /veh FAM212B (11763350_a_at) / RFU PLEKHG5 (11743358_a_at) / Fold change /veh PLEKHG5 (11743358_a_at) / RFU ZSCAN30 (11745921_a_at) / Fold change /veh ZSCAN30 (11745921_a_at) / RFU CMKLR1 (11741424_a_at) / Fold change /veh CMKLR1 (11741424_a_at) / RFU LOC101060620 /// MAPK8IP1 (11723275_at) / Fold change /veh LOC101060620 /// MAPK8IP1 (11723275_at) / RFU SPTSSB (11747773_x_at) / Fold change /veh SPTSSB (11747773_x_at) / RFU PRSS12 (11739890_at) / Fold change /veh PRSS12 (11739890_at) / RFU BIN1 (11741810_x_at) / Fold change /veh BIN1 (11741810_x_at) / RFU WNT11 (11732464_a_at) / Fold change /veh WNT11 (11732464_a_at) / RFU C10orf10 (11716521_a_at) / Fold change /veh C10orf10 (11716521_a_at) / RFU C5orf56 (11738089_at) / Fold change /veh C5orf56 (11738089_at) / RFU CYB561 (11721691_x_at) / Fold change /veh CYB561 (11721691_x_at) / RFU ANKRD19P (11752326_a_at) / Fold change /veh ANKRD19P (11752326_a_at) / RFU OR2T12 /// OR2T33 /// OR2T8 (11738714_s_at) / Fold change /veh OR2T12 /// OR2T33 /// OR2T8 (11738714_s_at) / RFU VCAN (11748164_a_at) / Fold change /veh VCAN (11748164_a_at) / RFU JSRP1 (11732532_at) / Fold change /veh JSRP1 (11732532_at) / RFU KRTAP10-11 (11738290_x_at) / Fold change /veh KRTAP10-11 (11738290_x_at) / RFU MYO3A (11730013_a_at) / Fold change /veh MYO3A (11730013_a_at) / RFU EBF3 (11725865_a_at) / Fold change /veh EBF3 (11725865_a_at) / RFU CAMK2N1 (11719241_x_at) / Fold change /veh CAMK2N1 (11719241_x_at) / RFU C5orf56 (11738088_a_at) / Fold change /veh C5orf56 (11738088_a_at) / RFU OLFML3 (11715873_a_at) / Fold change /veh OLFML3 (11715873_a_at) / RFU LOC100653217 /// NTM (11731650_a_at) / Fold change /veh LOC100653217 /// NTM (11731650_a_at) / RFU MAPK11 (11762145_a_at) / Fold change /veh MAPK11 (11762145_a_at) / RFU FIZ1 (11724087_x_at) / Fold change /veh FIZ1 (11724087_x_at) / RFU OASL (11726364_x_at) / Fold change /veh OASL (11726364_x_at) / RFU SOX15 (11748057_x_at) / Fold change /veh SOX15 (11748057_x_at) / RFU CD79A (11719716_a_at) / Fold change /veh CD79A (11719716_a_at) / RFU HIST1H1D (11736915_at) / Fold change /veh HIST1H1D (11736915_at) / RFU CASKIN2 (11723855_a_at) / Fold change /veh CASKIN2 (11723855_a_at) / RFU LOC730098 (11760151_x_at) / Fold change /veh LOC730098 (11760151_x_at) / RFU OR4N2 (11742367_at) / Fold change /veh OR4N2 (11742367_at) / RFU PRRT2 (11749266_a_at) / Fold change /veh PRRT2 (11749266_a_at) / RFU SNX32 (11753110_a_at) / Fold change /veh SNX32 (11753110_a_at) / RFU CDHR5 (11726645_a_at) / Fold change /veh CDHR5 (11726645_a_at) / RFU RCAN1 (11760418_a_at) / Fold change /veh RCAN1 (11760418_a_at) / RFU FAM167A (11723789_a_at) / Fold change /veh FAM167A (11723789_a_at) / RFU FAM26E (11764081_at) / Fold change /veh FAM26E (11764081_at) / RFU ISYNA1 (11749810_s_at) / Fold change /veh ISYNA1 (11749810_s_at) / RFU ACY1 (11761880_at) / Fold change /veh ACY1 (11761880_at) / RFU 11764098_at / Fold change /veh 11764098_at / RFU SAMD14 (11745864_x_at) / Fold change /veh SAMD14 (11745864_x_at) / RFU NPB (11741838_a_at) / Fold change /veh NPB (11741838_a_at) / RFU TMPRSS6 (11731388_a_at) / Fold change /veh TMPRSS6 (11731388_a_at) / RFU KRTAP10-2 (11738614_at) / Fold change /veh KRTAP10-2 (11738614_at) / RFU ARHGAP8 /// PRR5-ARHGAP8 (11727945_x_at) / Fold change /veh ARHGAP8 /// PRR5-ARHGAP8 (11727945_x_at) / RFU KRTAP5-7 /// NADSYN1 (11734609_at) / Fold change /veh KRTAP5-7 /// NADSYN1 (11734609_at) / RFU RASL12 (11751679_a_at) / Fold change /veh RASL12 (11751679_a_at) / RFU CDKN2B (11736163_a_at) / Fold change /veh CDKN2B (11736163_a_at) / RFU PRF1 (11729649_at) / Fold change /veh PRF1 (11729649_at) / RFU, ZNF638 /// ZNF638-IT1 / Fold change vs veh, ZNF638 /// ZNF638-IT1 / RFU, PANK3 / Fold change vs veh, PANK3 / RFU, SH3YL1 / Fold change vs veh, SH3YL1 / RFU, ZEB2 / Fold change vs veh, ZEB2 / RFU, NRIP1 / Fold change vs veh, NRIP1 / RFU, PTTG1IP / Fold change vs veh, PTTG1IP / RFU, CAPN2 / Fold change vs veh, CAPN2 / RFU, MED14 / Fold change vs veh, MED14 / RFU, SNORA58 / Fold change vs veh, SNORA58 / RFU, C1orf63 / Fold change vs veh, C1orf63 / RFU, LRRFIP1 / Fold change vs veh, LRRFIP1 / RFU, NDUFAF7 / Fold change vs veh, NDUFAF7 / RFU, SLC12A2 / Fold change vs veh, SLC12A2 / RFU, IBTK / Fold change vs veh, IBTK / RFU, ESF1 / Fold change vs veh, ESF1 / Fold change vs veh, TMEM50B / RFU, TAOK1 / Fold change vs veh, TAOK1 / RFU, ACBD3 / Fold change vs veh, ACBD3 / RFU, TMA16 / Fold change vs veh, TMA16 / RFU, RWDD3 / Fold change vs veh, RWDD3 / RFU, BCAT1 / Fold change vs veh, BCAT1 / RFU, EDEM3 / Fold change vs veh, EDEM3 / RFU, TMEM33 / Fold change vs veh, TMEM33 / RFU, WDR75 / Fold change vs veh, WDR75 / RFU, AHCTF1 / Fold change vs veh, AHCTF1 / RFU, TFRC / Fold change vs veh, TFRC / RFU, ZDHHC17 / Fold change vs veh, ZDHHC17 / RFU, NOM1 / Fold change vs veh, NOM1 / RFU, ARL8B / Fold change vs veh, ARL8B / RFU, ZBTB11 / Fold change vs veh, ZBTB11 / RFU, TAMM41 / Fold change vs veh, TAMM41 / RFU, KIAA1704 /// LOC100996395 / Fold change vs veh, KIAA1704 /// LOC100996395 / RFU, ING1 / Fold change vs veh, ING1 / RFU, TRMT61B / Fold change vs veh, TRMT61B / RFU, FUBP3 / Fold change vs veh, FUBP3 / RFU, TP53 / Fold change vs veh, TP53 / RFU, TNKS2 / Fold change vs veh, TNKS2 / RFU, ZFP14 / Fold change vs veh, ZFP14 / RFU, ACTR2 / Fold change vs veh, ACTR2 / RFU, PPP3R1 / Fold change vs veh, PPP3R1 / RFU, PIK3R1 / Fold change vs veh, PIK3R1 / RFU, HNRNPA1 / Fold change vs veh, HNRNPA1 / RFU, RNF170 / Fold change vs veh, RNF170 / RFU, ZNF28 / Fold change vs veh, ZNF28 / RFU, RNGTT / Fold change vs veh, RNGTT / RFU, OGT / Fold change vs veh, OGT / RFU, BRD1 / Fold change vs veh, BRD1 / RFU, MARS / Fold change vs veh, MARS / RFU, ZNF655 / Fold change vs veh, ZNF655 / RFU, FAHD1 / Fold change vs veh, FAHD1 / RFU, BDP1 / Fold change vs veh, BDP1 / RFU, LRRCC1 / Fold change vs veh, LRRCC1 / RFU, ARID1A / Fold change vs veh, ARID1A / RFU, ZNF146 / Fold change vs veh, ZNF146 / RFU, ZNF330 / Fold change vs veh, ZNF330 / RFU, GPN3 / Fold change vs veh, GPN3 / RFU, C9orf123 / Fold change vs veh, C9orf123 / RFU, N4BP2L2 / Fold change vs veh, N4BP2L2 / RFU, ARFIP1 / Fold change vs veh, ARFIP1 / RFU, FAM179B / Fold change vs veh, FAM179B / RFU, BCL10 / Fold change vs veh, BCL10 / RFU, UHRF1BP1L / Fold change vs veh, UHRF1BP1L / RFU, BET1 / Fold change vs veh, BET1 / RFU, CNOT2 / Fold change vs veh, CNOT2 / RFU, ZNF268 / Fold change vs veh, ZNF268 / Fold change vs veh, ZNF507 / RFU, DGCR2 / Fold change vs veh, DGCR2 / RFU, WDSUB1 / Fold change vs veh, WDSUB1 / Fold change vs veh, HSP90B1 /// MIR3652 / RFU, ADSS / Fold change vs veh, ADSS / RFU, GK / Fold change vs veh, GK / RFU, ZNF148 / Fold change vs veh, ZNF148 / RFU, TAF9 / Fold change vs veh, TAF9 / RFU, SLC1A5 / Fold change vs veh, SLC1A5 / RFU, SLMO2 / Fold change vs veh, SLMO2 / RFU, ABCC4 / Fold change vs veh, ABCC4 / RFU, LOC101060439 /// RAP1B / Fold change vs veh, LOC101060439 /// RAP1B / RFU, RFX7 / Fold change vs veh, RFX7 / RFU, GTPBP10 / Fold change vs veh, GTPBP10 / RFU, CNEP1R1 / Fold change vs veh, CNEP1R1 / RFU, BIVM-ERCC5 /// ERCC5 / Fold change vs veh, BIVM-ERCC5 /// ERCC5 / RFU, ILF3 / Fold change vs veh, ILF3 / RFU 11762660_at / Fold change /veh 11762660_at / RFU VCAN (11757783_s_at) / Fold change /veh VCAN (11757783_s_at) / RFU DDX43 (11728927_at) / Fold change /veh DDX43 (11728927_at) / RFU KRT8 (11758188_x_at) / Fold change /veh KRT8 (11758188_x_at) / RFU NKD1 (11759106_at) / Fold change /veh NKD1 (11759106_at) / RFU SRD5A1 (11742802_a_at) / Fold change /veh SRD5A1 (11742802_a_at) / RFU TPSAB1 /// TPSB2 (11721975_s_at) / Fold change /veh TPSAB1 /// TPSB2 (11721975_s_at) / RFU GSTM3 (11746129_a_at) / Fold change /veh GSTM3 (11746129_a_at) / RFU IL23R (11737362_x_at) / Fold change /veh IL23R (11737362_x_at) / RFU TMEM51 (11727254_a_at) / Fold change /veh TMEM51 (11727254_a_at) / RFU PIWIL2 (11732686_x_at) / Fold change /veh PIWIL2 (11732686_x_at) / RFU ORM1 (11744905_x_at) / Fold change /veh ORM1 (11744905_x_at) / RFU CCDC152 (11743942_at) / Fold change /veh CCDC152 (11743942_at) / RFU ECM1 (11717891_a_at) / Fold change /veh ECM1 (11717891_a_at) / RFU IL23R (11748794_a_at) / Fold change /veh IL23R (11748794_a_at) / RFU TNFAIP8L3 (11732012_x_at) / Fold change /veh TNFAIP8L3 (11732012_x_at) / RFU MBOAT4 (11741988_at) / Fold change /veh MBOAT4 (11741988_at) / RFU 11764193_at / Fold change /veh 11764193_at / RFU TMEM53 (11763286_at) / Fold change /veh TMEM53 (11763286_at) / RFU MAGEB2 (11727129_at) / Fold change /veh MAGEB2 (11727129_at) / RFU TMEM200A (11744735_a_at) / Fold change /veh TMEM200A (11744735_a_at) / RFU CCDC152 (11751479_a_at) / Fold change /veh CCDC152 (11751479_a_at) / RFU FAM211A (11726209_a_at) / Fold change /veh FAM211A (11726209_a_at) / RFU RGS16 (11746705_a_at) / Fold change /veh RGS16 (11746705_a_at) / RFU VCAN (11755009_s_at) / Fold change /veh VCAN (11755009_s_at) / RFU RHOB (11743442_s_at) / Fold change /veh RHOB (11743442_s_at) / RFU RGS16 (11720943_a_at) / Fold change /veh RGS16 (11720943_a_at) / RFU RGS16 (11720944_at) / Fold change /veh RGS16 (11720944_at) / RFU, VPS4B / Fold change vs veh, VPS4B / RFU, CREB1 / Fold change vs veh, CREB1 / RFU, DNAJC13 / Fold change vs veh, DNAJC13 / RFU, GNAQ / Fold change vs veh, GNAQ / RFU, CDK5R1 / Fold change vs veh, CDK5R1 / RFU, ZRANB3 / Fold change vs veh, ZRANB3 / RFU, CUL4A / Fold change vs veh, CUL4A / RFU, CCNY / Fold change vs veh, CCNY / RFU, UFL1 / Fold change vs veh, UFL1 / RFU, COG3 / Fold change vs veh, COG3 / RFU, DIAPH2 / Fold change vs veh, DIAPH2 / RFU, SKA2 / Fold change vs veh, SKA2 / RFU, AFF3 / Fold change vs veh, AFF3 / RFU, LMF1 / Fold change vs veh, LMF1 / RFU, IPO11 / Fold change vs veh, IPO11 / RFU, DFFB / Fold change vs veh, DFFB / RFU, FOXP1 / Fold change vs veh, FOXP1 / RFU, CARD8 / Fold change vs veh, CARD8 / RFU, STRN3 / Fold change vs veh, STRN3 / RFU, ADK / Fold change vs veh, ADK / RFU, RASSF2 / Fold change vs veh, RASSF2 / RFU, WIPF1 / Fold change vs veh, WIPF1 / RFU, LARP1B / Fold change vs veh, LARP1B / RFU, RASA1 / Fold change vs veh, RASA1 / RFU, RB1 / Fold change vs veh, RB1 / RFU, PPFIA1 / Fold change vs veh, PPFIA1 / RFU, MAT2A / Fold change vs veh, MAT2A / RFU, CCT5 / Fold change vs veh, CCT5 / RFU, WDR92 / Fold change vs veh, WDR92 / RFU, CUX1 / Fold change vs veh, CUX1 / RFU, TTC7A / Fold change vs veh, TTC7A / RFU, TMEM135 / Fold change vs veh, TMEM135 / RFU, DEPTOR / Fold change vs veh, DEPTOR / RFU, CPM / Fold change vs veh, CPM / RFU, DNAJB6 / Fold change vs veh, DNAJB6 / RFU, CACNA2D3 / Fold change vs veh, CACNA2D3 / RFU, DTX4 / Fold change vs veh, DTX4 / RFU, TFCP2 / Fold change vs veh, TFCP2 / RFU, GMCL1 /// GMCL1P1 / Fold change vs veh, GMCL1 /// GMCL1P1 / RFU, AEBP2 / Fold change vs veh, AEBP2 / RFU, SNHG1 /// SNORD22 /// SNORD25 /// SNORD26 /// SNORD27 /// SNORD28 /// SNORD29 /// SNORD31 / Fold change vs veh, SNHG1 /// SNORD22 /// SNORD25 /// SNORD26 /// SNORD27 /// SNORD28 /// SNORD29 /// SNORD31 / Fold change (Aza/veh), C12orf56 (ProbeSet 11735607_a_at) / Fold change (ACY-1035/veh), C12orf56 (ProbeSet 11735607_a_at) / Fold change (Aza/veh), FGFR1OP (ProbeSet 11751329_s_at) / Fold change (ACY-1035/veh), FGFR1OP (ProbeSet 11751329_s_at) / Fold change (Aza/veh), VPS36 (ProbeSet 11739960_a_at) / Fold change (ACY-1035/veh), VPS36 (ProbeSet 11739960_a_at) / RFU SYPL1 (11715823_x_at) / Fold change /veh SYPL1 (11715823_x_at) / RFU IGFBP7 (11715501_s_at) / Fold change /veh IGFBP7 (11715501_s_at) / RFU REEP3 (11722064_at) / Fold change /veh REEP3 (11722064_at) / RFU IGLL1 (11728026_x_at) / Fold change /veh IGLL1 (11728026_x_at): dose or concentration left out as unconfirmed.

Each structure is given as a SMILES string.

Consider one compound from PMC5218480 (PLoS ONE, 2017).

Take `Nc1ncn([C@@H]2O[C@H](CO)[C@@H](O)[C@H]2O)c(=O)n1` [azacitidine]: the “Fold change vs veh, GPN3” value was 0.91.
